The values that follow come from PubChem BioAssay (NCI).

Test in all cases: growth of human tumour cells (NCI), 48 h
The test system of assay [1] is SK-MEL-28 melanoma.
The test system of assay [2] is MALME-3M melanoma.
In assay [3] the test system is SNB-19 CNS.
For assay [4], the system named is 786-0 renal.
The test system of assay [5] is NCI-H226 lung.
In assay [6] the test system is EKVX NSCLC.
Assay [7] deals with SR leukemia.
Assay [8] relates to MCF7 breast.
The test system of assay [9] is PC-3 prostate.
In assay [10] the test system is HS 578T breast.

Each structure is given as a SMILES string. Several values for one entry are separate records, joined by “and”; a condition that tells them apart may be missing. Equal entries are not always repeated.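 Growth conditions: 96-well plates. Treatment: test compound, 48 hours, 5 concentrations. Analysis: linear interpolation between bracketing concentrations; unreached endpoints set to highest concentration. GI50 is the concentration that inhibits growth by half. At the TGI there is no net growth.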 Bounds are passed on as bounds.

In the case of `CN1C(c2ccccc2)CC(=Nc2ccccc2)CC1c1ccccc1` (stereo not drawn), the TGI in assay [1] is 23.2 µM; in assay [2], 22.9 µM; in assay [3], 27.8 µM; in [4], 27.7 µM; in assay [5] it was 25.6 µM; in assay [6], 56.5 µM. For the same compound, in assay [7], the TGI amounted to 34.5 µM.
As for `CCN=C1NN=C(c2ccccc2)c2cc(Cl)ccc2N1`, the TGI in assay [1] is 33.7 µM; in assay [2], 33.7 µM; in assay [3], > 100 µM; in assay [4] it was 34.1 µM; in assay [5], 43.3 µM; in [6] it was 92.7 µM.
Consider `CC1C(=O)N=C2C(=CN(Cc3ccccc3)c3ccccc32)C(=O)N1C` (stereo not drawn), for which the TGI in [1], in assay [8], in assay [2], in assay [3], in [4] and in [9] was > 100 µM throughout. In addition, the TGI in [5] and in assay [7] was > 100 µM throughout.
Consider `CCOC(=O)/C(C#N)=C(O)/C(=C/c1ccccc1Cl)NC(=O)c1ccccc1`, for which the TGI in assay [1], in assay [2], in assay [3], in assay [4], in assay [5] and in [6] was > 100 µM throughout.
In the case of `COc1cc(C)cc2c1OC(c1ccccc1)CC2=O` (stereo not drawn), the GI50 in assay [1], in assay [8], in assay [2], in assay [3], in assay [4] and in assay [9] was > 100 µM each time. The GI50 in assay [5], in assay [6] and in assay [7] was > 100 µM throughout. In addition, the TGI in assay [1], in [8], in assay [2], in [3], in assay [4] and in assay [9] was > 100 µM each time. Also, the TGI in assay [5], in [6] and in [7] was > 100 µM each time.
For the compound `C/C(=N\NC(=S)N(C)C)c1ncc[nH]1`, the TGI in assay [1] is > 100 µM; in [2] it was 21.6 µM; in assay [3] it was > 100 µM; in assay [4], 5.67 µM; in assay [6] it was > 100 µM; in [7] it was 7.52 µM.
Turning to `Cc1cccc(C(C)(C)C)c1NC(=O)CC1C(=O)Nc2ccccc2S1=O` (stereo not drawn), the TGI was > 100 µM in assay [1]; > 100 µM in [2]; > 100 µM in [3]; > 100 µM in assay [4]; > 100 µM in assay [5]; 87.8 µM in assay [7].
For `COc1ccccc1NC(=O)CC(=O)n1nc(C)c(N=Nc2ccccc2F)c1C`, the TGI in [1], in assay [3], in assay [4], in assay [5], in assay [6] and in [7] was > 100 µM throughout.
For the compound `C/C(=N\NC(N)=S)c1ccc(/C(C)=N/NC(N)=S)cc1`, the TGI in assay [1], in assay [2], in assay [3], in assay [4], in assay [5] and in assay [6] was > 100 µM each time. Besides, the TGI in assay [7] was > 100 µM.
In the case of `Cc1cc2c(C(C)C)c(O)c(O)c3coc(/c1=c1/c(C)cc4c(C(C)C)c(=O)c(=O)c5coc1c45)c32`, the TGI in assay [1] stood at 22.2 µM; in assay [2] it was 29.1 µM; in [3], 15.6 µM; in assay [4] it was 22.1 µM; in [5], 22.9 µM; in assay [6] it was 16.4 µM.
For `C=CCOc1cc2c(cc1C(C)c1ccc(OC)cc1)OCO2` (stereo not drawn), the TGI in assay [1], in assay [8], in [2], in assay [3], in assay [4] and in assay [9] was > 100 µM in each case. The TGI in assay [5] was 40.2 µM; in assay [6] it was > 100 µM; in assay [7] it was 0.695 µM.
For the compound `N=C(c1ccccc1)N1CCCCC1`, the TGI in assay [1], in assay [2], in assay [3], in assay [4], in assay [5] and in assay [6] was > 100 µM each time. Further, the TGI in [7] was > 100 µM.
As to `COc1cc2c(cc1OC)-c1c(cnn1C1OC(COC(C)=O)C(OC(C)=O)C(OC(C)=O)C1OC(C)=O)CC2` (stereo not drawn), the TGI in assay [1] was > 100 µM; in assay [3], > 100 µM; in assay [4] it was > 100 µM; in assay [5] it was > 100 µM; in [6], > 100 µM; in [7], > 28.7 µM.
For the compound `C/C(=N\NC(N)=S)c1ccc2c(c1)OCO2`, the TGI in [1], in [2], in assay [3], in assay [4], in assay [5] and in assay [6] was > 100 µM in each case. In addition, in assay [7], the TGI was > 100 µM.
For the compound `CC(C)=CC(=O)Cc1nc2ccccc2[nH]c1=O`, the TGI in assay [1], in [2], in [3], in [4], in assay [5] and in assay [6] was > 100 µM throughout. The TGI in assay [7] is > 100 µM.
For `CSC(=S)N(C)c1nc(=[N+](C)C)ss1`, the TGI in [1], in assay [2], in assay [3], in [4], in assay [5] and in assay [6] was > 100 µM throughout. For the same compound, the TGI in assay [7] is > 100 µM.
`Clc1ccc(C2=Nc3ccccc3SC(c3ccc(Cl)c(Cl)c3)C2)c(Cl)c1` (stereo not drawn): the TGI in assay [1] came to 30.3 µM; in [2], 29.9 µM; in assay [3], 40 µM; in assay [4], 27.6 µM; in assay [5], 37.4 µM; in [6], 33.6 µM.
As to `O=S(=O)(O)C(F)(F)C(F)(F)C(F)(F)C(F)(F)F`, the TGI in assay [2], in assay [3], in assay [4] and in assay [6] was > 100 µM throughout.
`Cc1cc2c(cn1)C(=O)OCC2`: the TGI in [1], in assay [2], in assay [3], in [4], in [5] and in [6] was > 100 µM in each case. In addition, in assay [7], the TGI was > 100 µM.
`O=c1c2cc(Br)ccc2oc2ccc(Br)cc12`: the TGI in [1], in [8], in assay [2], in assay [3], in [4] and in assay [9] was > 100 µM each time. Besides, the TGI in assay [5] is > 100 µM.
For `COc1ccc(C2(CN(C)C)COc3cc(OC)c(OC)cc3C2=O)cc1OC` (stereo not drawn), the TGI in assay [1], in assay [2], in assay [3], in [4], in [5] and in assay [6] was > 100 µM throughout. Besides, the TGI in assay [7] was > 100 µM.
Turning to `Cc1ccccc1C(C#N)/C(=N/NC(=O)c1cc2ccccc2cc1O)C(=O)Nc1cccc(Cl)c1` (stereo not drawn), the TGI is > 100 µM in assay [1]; > 100 µM in assay [2]; > 100 µM in [3]; > 100 µM in [4]; 78.4 µM in assay [5]; > 100 µM in [6]. The TGI in assay [7] was 84.5 µM.
Take `CCCOc1ccc(/C=C/c2cc(OC)c(OC)c(OC)c2)cc1`: the TGI is > 100 µM in [1]; 84.8 µM in assay [2]; > 100 µM in [3]; > 56.3 µM in [4]; 2.54 µM in assay [5]; > 100 µM in assay [6]. Also, in [7], the TGI came to 31.2 µM.
For `O=C(CC(=O)Nc1ccc(Cl)cc1)NNCC(=O)Nc1nc(-c2ccccc2)cs1`, the TGI in assay [1], in [3], in assay [4], in assay [5] and in assay [6] was > 100 µM throughout.
As to `CCc1ccccc1NC(=O)CCc1nc(=S)[nH][nH]1`, the TGI in [1], in assay [2], in [3], in assay [4], in assay [5] and in assay [7] was > 100 µM in each case.
In the case of `CCCCCCC(C)CC(CCCCCC)NCCOC(=O)c1ccc([N+](=O)[O-])cc1` (stereo not drawn), the TGI is 27 µM in assay [1]; 28.3 µM and 21 µM in assay [8]; 28 µM and 25.7 µM in [2]; 32.2 µM and 32.5 µM in [3]; 33.7 µM and 33.5 µM in [4]; 29.4 µM and 28.6 µM in assay [5]. The TGI is 41.5 µM and 41.1 µM in assay [10]; 27.2 µM and 21.4 µM in assay [6].
With `CC(=O)/C=C1/c2ccccc2N(C(C)=O)C1O` (stereo not drawn), the TGI in [1], in assay [3], in assay [4], in assay [6] and in [7] was > 100 µM in each case.
